Reference: ChEMBL document CHEMBL1201862, “PubChem BioAssay data set” (2004)
Calls of active or inactive are those of the source.

Assays:
Caspase-7 = target: T1, Caspase-7 (Homo sapiens, UniProt P55210); assay: activation of caspase-7 zymogen – biochemical, absorbance, counter-screen for procaspase-3 activator project, dose response (AID 489013)
T1 sequence (P55210 whole entry): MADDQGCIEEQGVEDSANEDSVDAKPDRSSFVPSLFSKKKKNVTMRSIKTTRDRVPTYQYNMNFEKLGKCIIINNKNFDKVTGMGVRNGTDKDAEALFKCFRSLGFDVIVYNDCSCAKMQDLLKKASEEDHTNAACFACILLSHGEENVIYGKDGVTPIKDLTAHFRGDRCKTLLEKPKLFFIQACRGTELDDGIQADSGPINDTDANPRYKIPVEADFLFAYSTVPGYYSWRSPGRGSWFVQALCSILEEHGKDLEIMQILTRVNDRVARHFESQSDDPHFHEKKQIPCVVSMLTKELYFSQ

Streptococcus = assay: GAS UMAA2166 growth inhibition – luminescence, BacTiterGlo, counter-screen for streptokinase expression inhibitor project, dose response (AID 1915); assay type: functional, organism-based;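 further: potency for reduction of bacterial viability or growth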
[1] = test system: Streptococcus sp. 'group A'; assay: Streptococcus pyogenes SK(-)GAS viability under kanamycin – luminescence, BacTiterGlo, confirmation, counter-screen for streptokinase expression inhibitor project, dose response (AID 1900); assay type: functional, organism-based
Caspase-3 = target: T2, Caspase-3 (Homo sapiens, UniProt P42574); assay: activation of caspase-3 zymogen – biochemical, absorbance, dose response (AID 489014)
T2 sequence (P42574 whole entry): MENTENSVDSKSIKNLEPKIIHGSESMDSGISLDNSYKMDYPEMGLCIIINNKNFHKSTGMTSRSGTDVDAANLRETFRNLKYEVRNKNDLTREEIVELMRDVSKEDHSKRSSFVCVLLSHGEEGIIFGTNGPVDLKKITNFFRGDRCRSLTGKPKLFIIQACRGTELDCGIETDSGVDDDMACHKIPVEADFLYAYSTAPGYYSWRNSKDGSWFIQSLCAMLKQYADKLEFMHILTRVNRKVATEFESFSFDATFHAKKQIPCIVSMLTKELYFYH

[2] = target: 1-acylglycerol-3-phosphate O-acyltransferase ABHD5/Perilipin-5 (Homo sapiens, UniProt Q00G26+Q8WTS1); assay: Luminescence-based biochemical high throughput dose response assay for inhibitors of the interaction of the lipase co-activator protein, abhydrolase domain containing 5 (ABHD5) with perilipin-5 (MLDP; PLIN5) (2K validation set). [Related pubchem assays (depositor defined):AID493035, AID493241]
Sequence of 1-acylglycerol-3-phosphate O-acyltransferase ABHD5/Perilipin-5 (Q00G26 whole entry, the tested form may be a part): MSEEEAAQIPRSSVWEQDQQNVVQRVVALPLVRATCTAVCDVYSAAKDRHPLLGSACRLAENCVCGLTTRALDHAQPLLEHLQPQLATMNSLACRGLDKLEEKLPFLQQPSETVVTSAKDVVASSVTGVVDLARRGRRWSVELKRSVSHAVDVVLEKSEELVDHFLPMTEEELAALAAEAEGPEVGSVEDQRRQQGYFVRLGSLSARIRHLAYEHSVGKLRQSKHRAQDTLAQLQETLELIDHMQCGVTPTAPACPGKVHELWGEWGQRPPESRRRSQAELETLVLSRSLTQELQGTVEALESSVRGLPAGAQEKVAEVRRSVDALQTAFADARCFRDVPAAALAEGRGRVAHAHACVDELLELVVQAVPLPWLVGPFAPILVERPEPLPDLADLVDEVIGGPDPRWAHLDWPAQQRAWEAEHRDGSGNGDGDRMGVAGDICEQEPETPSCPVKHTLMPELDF
Sequence of 1-acylglycerol-3-phosphate O-acyltransferase ABHD5/Perilipin-5 (Q8WTS1 whole entry, the tested form may be a part): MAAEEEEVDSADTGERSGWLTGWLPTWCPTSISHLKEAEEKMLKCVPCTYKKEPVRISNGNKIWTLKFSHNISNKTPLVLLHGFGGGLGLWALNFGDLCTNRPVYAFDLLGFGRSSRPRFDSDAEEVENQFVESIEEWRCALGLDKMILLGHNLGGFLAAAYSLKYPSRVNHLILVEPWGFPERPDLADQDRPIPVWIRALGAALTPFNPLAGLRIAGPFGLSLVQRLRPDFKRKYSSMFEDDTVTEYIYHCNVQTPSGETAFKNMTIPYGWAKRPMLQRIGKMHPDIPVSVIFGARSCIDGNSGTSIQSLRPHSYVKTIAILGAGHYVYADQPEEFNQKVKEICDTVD

Perilipin-1/ABHD5 = Perilipin-1/ABHD5 (Homo sapiens, UniProt O60240+Q8WTS1); assay: Luminescence-based biochemical high throughput dose response assay for inhibitors of the interaction of the lipase co-activator protein, abhydrolase domain containing 5 (ABHD5) with perilipin-1 (PLIN1) (2K validation set). [Related pubchem assays (depositor defined):AID493027, AID493057]
Sequence of Perilipin-1/ABHD5 (Q8WTS1 whole entry, the tested form may be a part): as above
Sequence of Perilipin-1/ABHD5 (O60240 whole entry, the tested form may be a part): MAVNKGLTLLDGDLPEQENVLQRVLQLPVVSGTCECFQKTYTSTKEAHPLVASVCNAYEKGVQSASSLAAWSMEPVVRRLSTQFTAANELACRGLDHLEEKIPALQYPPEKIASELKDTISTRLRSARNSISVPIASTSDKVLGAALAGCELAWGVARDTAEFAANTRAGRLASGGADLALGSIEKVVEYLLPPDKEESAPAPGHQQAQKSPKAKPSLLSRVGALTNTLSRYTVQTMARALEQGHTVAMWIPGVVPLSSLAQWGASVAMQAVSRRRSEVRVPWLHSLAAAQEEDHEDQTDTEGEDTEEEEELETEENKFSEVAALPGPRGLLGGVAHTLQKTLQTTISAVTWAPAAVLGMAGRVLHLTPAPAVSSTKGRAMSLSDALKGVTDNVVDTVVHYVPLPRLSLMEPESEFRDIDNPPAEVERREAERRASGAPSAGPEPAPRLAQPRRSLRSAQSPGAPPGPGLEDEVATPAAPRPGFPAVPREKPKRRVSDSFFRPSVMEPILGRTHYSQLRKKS

Coagulation factor XII = target: T3, Coagulation factor XII (Homo sapiens, UniProt P00748); assay: activated coagulation factor XII inhibitor potency, concentration-effect curve, cell-free (AID 716); assay type: functional
T3 sequence (P00748 whole entry): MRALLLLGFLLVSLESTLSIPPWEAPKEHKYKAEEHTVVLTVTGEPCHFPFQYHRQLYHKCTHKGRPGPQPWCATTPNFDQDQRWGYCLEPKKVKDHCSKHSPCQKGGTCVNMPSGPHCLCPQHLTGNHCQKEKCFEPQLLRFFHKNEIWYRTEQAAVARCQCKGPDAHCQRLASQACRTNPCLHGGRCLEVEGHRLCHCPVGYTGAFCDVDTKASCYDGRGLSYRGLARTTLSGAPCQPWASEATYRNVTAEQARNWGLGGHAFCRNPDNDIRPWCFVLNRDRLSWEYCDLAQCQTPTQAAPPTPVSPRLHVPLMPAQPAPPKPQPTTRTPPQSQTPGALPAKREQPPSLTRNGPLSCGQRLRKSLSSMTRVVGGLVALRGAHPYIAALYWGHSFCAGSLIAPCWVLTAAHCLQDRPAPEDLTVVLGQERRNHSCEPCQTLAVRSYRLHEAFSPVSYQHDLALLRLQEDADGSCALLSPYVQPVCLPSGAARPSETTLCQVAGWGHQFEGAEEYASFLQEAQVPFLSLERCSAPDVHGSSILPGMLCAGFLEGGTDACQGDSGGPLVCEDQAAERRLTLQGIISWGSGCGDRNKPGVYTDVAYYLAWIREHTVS

T-cell = assay: loss of vesicle association with mouse CD8+ T cells – mouse 2C CD8+ T cells, flow cytometry, dose response (AID 485284); assay type: functional
Integrin alpha-L = Integrin alpha-L (Mus musculus, UniProt P24063); assay: modulators of CD8 T cell-vesicle binding, dose response, powder samples, mouse 2C CD8+ cells (AID 504565); assay type: functional
Sequence of Integrin alpha-L (P24063 whole entry): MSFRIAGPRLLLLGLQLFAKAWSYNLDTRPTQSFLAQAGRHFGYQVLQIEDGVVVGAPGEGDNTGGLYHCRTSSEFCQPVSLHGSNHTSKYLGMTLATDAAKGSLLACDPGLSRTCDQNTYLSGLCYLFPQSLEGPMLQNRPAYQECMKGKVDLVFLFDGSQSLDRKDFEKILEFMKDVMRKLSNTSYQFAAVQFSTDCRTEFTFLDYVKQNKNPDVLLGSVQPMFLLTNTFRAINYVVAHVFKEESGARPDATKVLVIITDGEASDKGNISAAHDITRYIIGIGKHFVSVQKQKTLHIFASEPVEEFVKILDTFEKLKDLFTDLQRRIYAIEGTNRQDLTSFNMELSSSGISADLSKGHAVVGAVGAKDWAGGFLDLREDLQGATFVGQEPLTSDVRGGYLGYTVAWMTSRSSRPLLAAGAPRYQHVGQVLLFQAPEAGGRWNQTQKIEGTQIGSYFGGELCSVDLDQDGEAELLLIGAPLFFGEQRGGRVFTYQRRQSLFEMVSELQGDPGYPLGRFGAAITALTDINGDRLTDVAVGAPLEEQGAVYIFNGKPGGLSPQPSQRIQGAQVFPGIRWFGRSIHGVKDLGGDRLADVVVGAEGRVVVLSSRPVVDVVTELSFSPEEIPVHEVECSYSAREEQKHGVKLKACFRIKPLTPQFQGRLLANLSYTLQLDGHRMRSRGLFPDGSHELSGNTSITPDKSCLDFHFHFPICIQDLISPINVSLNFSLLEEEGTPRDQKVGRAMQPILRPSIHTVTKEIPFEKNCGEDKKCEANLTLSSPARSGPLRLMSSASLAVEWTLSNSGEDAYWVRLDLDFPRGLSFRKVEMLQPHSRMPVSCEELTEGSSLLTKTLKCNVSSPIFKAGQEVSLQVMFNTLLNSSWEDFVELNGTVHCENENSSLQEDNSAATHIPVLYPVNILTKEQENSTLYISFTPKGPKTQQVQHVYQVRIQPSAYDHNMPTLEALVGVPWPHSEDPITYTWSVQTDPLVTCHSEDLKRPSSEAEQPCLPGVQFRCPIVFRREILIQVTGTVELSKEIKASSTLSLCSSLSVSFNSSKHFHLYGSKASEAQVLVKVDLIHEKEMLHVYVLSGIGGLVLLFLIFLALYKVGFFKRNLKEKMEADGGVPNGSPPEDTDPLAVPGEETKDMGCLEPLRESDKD

Hexokinase = Hexokinase (Trypanosoma brucei, UniProt Q38C41); assay: Confirmation assay for inhibitors of Trypanosoma brucei hexokinase 1-Analogue-first series. [Related pubchem assays (depositor defined):AID1430, AID1632, AID2516, AID2560, AID2579, AID2600, AID449725, AID492951]; assay type: functional
Sequence of Hexokinase (Q38C41 whole entry): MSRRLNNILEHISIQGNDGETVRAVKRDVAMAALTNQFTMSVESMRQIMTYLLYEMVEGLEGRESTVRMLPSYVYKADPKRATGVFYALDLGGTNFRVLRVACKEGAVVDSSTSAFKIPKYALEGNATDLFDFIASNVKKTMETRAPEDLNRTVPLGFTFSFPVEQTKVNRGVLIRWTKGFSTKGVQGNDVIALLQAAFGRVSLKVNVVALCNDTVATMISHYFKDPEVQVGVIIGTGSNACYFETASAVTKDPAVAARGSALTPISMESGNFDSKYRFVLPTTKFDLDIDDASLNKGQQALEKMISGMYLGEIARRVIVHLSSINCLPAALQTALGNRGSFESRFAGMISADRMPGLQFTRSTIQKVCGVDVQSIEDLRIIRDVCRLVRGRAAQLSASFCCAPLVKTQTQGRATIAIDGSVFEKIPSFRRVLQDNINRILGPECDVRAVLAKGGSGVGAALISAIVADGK

[3] = target: T4, Tyrosine-protein phosphatase non-receptor type 7 (Homo sapiens, UniProt P35236); assay: redox-active compounds inhibiting HePTP phosphatase – biochemical, fluorescence, mechanism study (AID 2068); assay type: functional
T4 sequence (P35236 whole entry): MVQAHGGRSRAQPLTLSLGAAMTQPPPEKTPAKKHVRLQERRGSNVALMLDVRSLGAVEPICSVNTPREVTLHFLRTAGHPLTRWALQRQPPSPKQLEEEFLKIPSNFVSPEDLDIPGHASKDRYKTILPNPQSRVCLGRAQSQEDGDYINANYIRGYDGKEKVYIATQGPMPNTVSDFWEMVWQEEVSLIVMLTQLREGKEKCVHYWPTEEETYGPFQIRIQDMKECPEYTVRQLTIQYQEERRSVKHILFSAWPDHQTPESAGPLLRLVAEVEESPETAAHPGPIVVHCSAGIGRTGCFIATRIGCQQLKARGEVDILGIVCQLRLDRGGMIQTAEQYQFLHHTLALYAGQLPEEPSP

[4] = protection from phage-mediated lysis, alamar blue read-out – E. coli UTI89, K1F phage, bacterial capsule biogenesis inhibitors (AID 488966); assay type: functional

O=C1C2C(c3ccccc3)=NN(c3ccccc3)C2C(=O)N1c1ccccc1 (configuration not stated)
EC50 (Caspase-7): > 85.3 µM (inactive) | EC50 (Streptococcus): 5.11 µM (active) | EC50 [1]: 1.02 µM (active) | EC50 (Caspase-3): > 85.3 µM (inactive)

COc1ccc(O)c(C(=O)/C=C/c2cc3ccccc3o2)c1
IC50 [2]: 4.85 µM (active) | IC50 (Perilipin-1/ABHD5): 4.8 µM (active)

COc1ccc(C(=O)c2c(C)oc3ccc(O)c(CN4CCOCC4)c23)cc1
IC50 (Coagulation factor XII): > 50 µM (inactive)

O=C(O)C1CCC(Cn2c(SCc3cc(=O)n4cc(Cl)ccc4n3)nc3ccsc3c2=O)CC1 (configuration not stated)
EC50 (T-cell): 18.2 µM (active) | EC50 (Integrin alpha-L): 51.9 µM (inactive)

O=C(Cn1sc2cc(F)ccc2c1=O)Nc1ccccc1
IC50 (Hexokinase): 4.34 µM (active)

CNC(=O)Nc1ccc2nc(-c3ccco3)c(-c3ccco3)nc2c1
IC50 [3]: 0.816 µM (active)

Cc1cc(C(=O)NN=Cc2ccc(OC(=O)c3ccco3)cc2)c(C)o1
IC50 [4]: > 150 µM (active)
